This is an account of results in patent publication US8791131B2, “Imidazo[1,5]naphthyridine compounds, their pharmaceutical use and compositions” (Pfizer Inc., priority 2008, dated 2014).

For assay [1], the target named is PI3-Kα (Mus musculus (Mouse), UniProt P42337). Briefly: PI3-Kα biochemical assay (in vitro kinase assay, fluorescence polarization).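 Also: Insect-cell-expressed mouse p110/p85 complex converting PI(4,5)P2, product PI(3,4,5)P3 detected by displacing TAMRA-tagged PI(3,4,5)P3 from Grip1 PH domain, lower polarization means more product, room temperature.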 The settings on record: Ki calculated from IC50, [ATP]=30 uM, Km=25 uM.
Sequence of PI3-Kα (P42337 whole entry, the tested form may be a part): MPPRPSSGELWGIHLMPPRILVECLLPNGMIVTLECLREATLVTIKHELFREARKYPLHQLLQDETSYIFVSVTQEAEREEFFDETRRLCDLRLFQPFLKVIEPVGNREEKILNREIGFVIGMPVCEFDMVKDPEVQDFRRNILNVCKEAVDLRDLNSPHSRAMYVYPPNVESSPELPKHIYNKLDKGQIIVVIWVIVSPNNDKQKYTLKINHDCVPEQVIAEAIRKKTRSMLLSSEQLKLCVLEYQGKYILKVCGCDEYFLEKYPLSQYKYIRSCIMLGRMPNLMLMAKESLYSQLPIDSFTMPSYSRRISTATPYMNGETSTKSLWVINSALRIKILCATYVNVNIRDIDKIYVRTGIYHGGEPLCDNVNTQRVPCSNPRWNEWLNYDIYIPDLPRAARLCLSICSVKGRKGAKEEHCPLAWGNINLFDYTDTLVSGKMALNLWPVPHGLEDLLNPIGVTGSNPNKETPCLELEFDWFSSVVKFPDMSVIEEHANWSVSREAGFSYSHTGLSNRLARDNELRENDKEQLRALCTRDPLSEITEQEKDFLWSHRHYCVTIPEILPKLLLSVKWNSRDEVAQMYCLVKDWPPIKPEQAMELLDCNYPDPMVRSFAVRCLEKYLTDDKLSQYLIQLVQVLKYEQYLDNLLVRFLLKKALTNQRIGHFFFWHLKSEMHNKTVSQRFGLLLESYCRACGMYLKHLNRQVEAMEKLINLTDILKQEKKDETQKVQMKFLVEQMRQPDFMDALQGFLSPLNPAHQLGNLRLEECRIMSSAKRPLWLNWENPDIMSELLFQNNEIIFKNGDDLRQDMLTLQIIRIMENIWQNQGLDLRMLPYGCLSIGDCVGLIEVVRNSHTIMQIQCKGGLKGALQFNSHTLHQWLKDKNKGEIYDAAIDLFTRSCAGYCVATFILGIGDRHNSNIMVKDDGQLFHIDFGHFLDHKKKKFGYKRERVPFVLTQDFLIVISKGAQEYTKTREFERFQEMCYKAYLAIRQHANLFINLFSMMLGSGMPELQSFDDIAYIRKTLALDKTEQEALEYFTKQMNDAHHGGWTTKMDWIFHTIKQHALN
Sequence of PI3-Kα (P26450 whole entry partner, the tested form may be a part): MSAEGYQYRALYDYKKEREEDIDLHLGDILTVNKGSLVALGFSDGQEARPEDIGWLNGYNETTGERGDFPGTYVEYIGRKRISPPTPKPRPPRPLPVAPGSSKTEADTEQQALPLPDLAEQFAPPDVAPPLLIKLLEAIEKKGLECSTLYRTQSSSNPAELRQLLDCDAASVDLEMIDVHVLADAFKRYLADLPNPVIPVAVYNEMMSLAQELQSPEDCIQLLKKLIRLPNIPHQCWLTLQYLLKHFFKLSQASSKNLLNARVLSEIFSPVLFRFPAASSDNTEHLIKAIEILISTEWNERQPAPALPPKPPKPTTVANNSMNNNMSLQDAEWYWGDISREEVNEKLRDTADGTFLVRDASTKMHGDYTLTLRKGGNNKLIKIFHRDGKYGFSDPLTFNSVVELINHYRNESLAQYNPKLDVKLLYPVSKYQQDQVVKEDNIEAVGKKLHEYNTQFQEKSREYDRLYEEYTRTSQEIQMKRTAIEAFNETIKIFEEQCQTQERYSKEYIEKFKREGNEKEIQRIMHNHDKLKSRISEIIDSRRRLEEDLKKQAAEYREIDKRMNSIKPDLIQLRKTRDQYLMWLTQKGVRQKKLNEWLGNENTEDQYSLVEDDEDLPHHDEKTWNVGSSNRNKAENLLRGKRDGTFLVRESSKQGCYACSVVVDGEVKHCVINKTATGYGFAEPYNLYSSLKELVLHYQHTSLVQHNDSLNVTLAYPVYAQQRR
For assay [2], the system named is PI3-K (phosphorylation of AKT at serine 473) in BT20 cells. Briefly: PI3-Kα cellular assay (phospho-AKT Ser473 ELISA in BT20 cells).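 Also: lysates read by ELISA with TMB colour at 450 nm, cells given 0.5% DMSO vehicle serve as positive control and cell-free wells as negative control, duplicate wells per concentration.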 Particulars: Homo sapiens, BT-20, 1 h, read-out: S473 pAKT 10% FBS IC50 (μM). On the technique in general: An ELISA detects its analyte on a solid surface through an enzyme-linked reagent.
Assay [3] deals with mTOR (Homo sapiens (Human), UniProt P42345).
Sequence of mTOR (P42345 2156-2469): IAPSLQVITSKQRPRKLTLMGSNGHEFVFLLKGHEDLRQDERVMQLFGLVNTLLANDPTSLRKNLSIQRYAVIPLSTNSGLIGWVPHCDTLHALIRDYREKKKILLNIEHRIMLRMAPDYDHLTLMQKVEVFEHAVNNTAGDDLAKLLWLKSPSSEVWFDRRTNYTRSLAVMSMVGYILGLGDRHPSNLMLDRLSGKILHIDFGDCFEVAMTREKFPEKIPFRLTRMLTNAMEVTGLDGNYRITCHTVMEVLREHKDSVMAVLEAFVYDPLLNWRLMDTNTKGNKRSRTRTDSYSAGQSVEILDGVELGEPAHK

`Cc1ccc(-c2ccc3ncc4c(c3n2)n(C2CCN(C(=O)CN)CC2)c(=O)n4C)cn1` [Compound 180, 1-(1-glycylpiperidin-4-yl)-3-methyl-8-(6-methylpyridin-3-yl)-1,3-dihydro-2H-imidazo[4,5-c][1,5]naphthyridin-2-one]: in assay [1], the “PI3Ka Ki” value was 0.32 nM. In assay [2], the IC50 (in general, the concentration at which inhibition is half-maximal) stood at 0.0689 µM. Moreover, in assay [3], the Ki (in general, the equilibrium dissociation constant of an inhibitor or competing ligand from its target) is 3.84 nM.

`COc1ncc(-c2ccc3ncc4c(c3n2)n(C2CCN(C)CC2)c(=O)n4C)cn1` [Compound 182, 8-(2-methoxypyrimidin-5-yl)-3-methyl-1-(1-methylpiperidin-4-yl)-1,3-dihydro-2H-imidazo[4,5-c][1,5]naphthyridin-2-one]: the “PI3Ka Ki” value in assay [1] was 27.5 nM. Moreover, the IC50 in assay [2] amounted to 0.159 µM. This compound also came in with a Ki in assay [3] of 4.51 nM.

As to `COc1ncc(-c2ccc3ncc4c(c3n2)n(C2CCN(C(=O)CN)CC2)c(=O)n4C)cn1` [Compound 184, 1-(1-glycylpiperidin-4-yl)-8-(2-methoxypyrimidin-5-yl)-3-methyl-1,3-dihydro-2H-imidazo[4,5-c][1,5]naphthyridin-2-one], the “PI3Ka Ki” value in assay [1] is 3.93 nM. In addition, the IC50 in assay [2] amounted to 0.184 µM. In assay [3], this compound displayed a Ki of 13.3 nM.

`COc1ncc(-c2ccc3ncc4c(c3n2)n(C2CCN(CCO)CC2)c(=O)n4C)cn1` [Compound 185, 1-[1-(2-hydroxyethyl)piperidin-4-yl]-8-(2-methoxypyrimidin-5-yl)-3-methyl-1,3-dihydro-2H-imidazo[4,5-c][1,5]naphthyridin-2-one]: the “PI3Ka Ki” value in assay [1] is 11.9 nM. Further, the IC50 in assay [2] is 0.124 µM. Moreover, affinity in assay [3] was put at a Ki of 25.2 nM.

Take `COc1ncc(-c2ccc3ncc4c(c3n2)n(C2CCN(C(C)=O)CC2)c(=O)n4C)cn1` [Compound 187, 1-(1-acetylpiperidin-4-yl)-8-(2-methoxypyrimidin-5-yl)-3-methyl-1,3-dihydro-2H-imidazo[4,5-c][1,5]naphthyridin-2-one]: the “PI3Ka Ki” value in assay [1] is 3.87 nM. For the same compound, the IC50 in assay [2] worked out at 0.0346 µM. In addition, the affinity in assay [3] corresponds to a Ki of 3.74 nM.

As to `COc1ncc(-c2ccc3ncc4c(c3n2)n(C2CCNCC2)c(=O)n4C)cn1` [Compound 188, 8-(2-methoxypyrimidin-5-yl)-3-methyl-1-piperidin-4-yl-1,3-dihydro-2H-imidazo[4,5-c][1,5]naphthyridin-2-one], the “PI3Ka Ki” value in assay [1] is 8.15 nM. Further, the IC50 in assay [2] was found to be 0.333 µM. This compound yielded a Ki in assay [3] of 50.4 nM.

For the compound `CN(C)c1ccc(-c2ccc3ncc4c(c3n2)n(C2CCNCC2)c(=O)n4C)cn1` [Compound 191, 8-[6-(dimethylamino)pyridin-3-yl]-3-methyl-1-piperidin-4-yl-1,3-dihydro-2H-imidazo[4,5-c][1,5]naphthyridin-2-one], in assay [1], the “PI3Ka Ki” value is 0.5 nM. Also, the IC50 in assay [2] stood at 0.0246 µM. The compound also showed an inhibition constant (Ki) in assay [3] of 8.41 nM.

As to `N[C@H]1CC[C@H](n2c(=O)[nH]c3cnc4ccc(-c5cnc6ccccc6c5)nc4c32)CC1` [Compound 192, 1-(trans-4-aminocyclohexyl)-8-quinolin-3-yl-1,3-dihydro-2H-imidazo[4,5-c][1,5]naphthyridin-2-one], the “PI3Ka Ki” value in assay [1] was 2.21 nM. In assay [2], the IC50 came out at 0.402 µM. In assay [3], the affinity, expressed as Ki, was 3.33 nM.

Regarding `CC(=O)N1CCC(n2c(=O)n(C)c3cnc4ccc(-c5ccc(N(C)C)nc5)nc4c32)CC1` [Compound 195, 1-(1-acetylpiperidin-4-yl)-8-[6-(dimethylamino)pyridin-3-yl]-3-methyl-1,3-dihydro-2H-imidazo[4,5-c][1,5]naphthyridin-2-one], the “PI3Ka Ki” value in assay [1] is 0.391 nM. Further, in assay [2], the IC50 came out at 0.0172 µM. In assay [3], this compound had a Ki of 1.72 nM.

Take `CNC(=O)N1CCC(n2c(=O)n(C)c3cnc4ccc(-c5ccc(N(C)C)nc5)nc4c32)CC1` [Compound 196, 4-{8-[6-(dimethylamino)pyridin-3-yl]-3-methyl-2-oxo-2,3-dihydro-1H-imidazo[4,5-c][1,5]naphthyridin-1-yl}-N-methylpiperidine-1-carboxamide]: the “PI3Ka Ki” value in assay [1] is 0.76 nM. The IC50 in assay [2] amounted to 0.0243 µM. This compound had a Ki in assay [3] of 3.01 nM.

For `CN(C)c1ccc(-c2ccc3ncc4c(c3n2)n(C2CCN(C(N)=O)CC2)c(=O)n4C)cn1` [Compound 197, 4-{8-[6-(dimethylamino)pyridin-3-yl]-3-methyl-2-oxo-2,3-dihydro-1H-imidazo[4,5-c][1,5]naphthyridin-1-yl}piperidine-1-carboxamide], the “PI3Ka Ki” value in assay [1] was 1.05 nM. Also, the IC50 in assay [2] was found to be 0.0358 µM. The inhibition constant Ki in assay [3] was determined as 0.444 nM.

Regarding `CN(C)c1ccc(-c2ccc3ncc4c(c3n2)n(C2CCN(CCO)CC2)c(=O)n4C)cn1` [Compound 198, 8-[6-(dimethylamino)pyridin-3-yl]-1-[1-(2-hydroxyethyl)piperidin-4-yl]-3-methyl-1,3-dihydro-2H-imidazo[4,5-c][1,5]naphthyridin-2-one], in assay [1], the “PI3Ka Ki” value was 3.13 nM. In addition, the IC50 in assay [2] is 0.0325 µM. Moreover, the affinity in assay [3], expressed as Ki, was 3.52 nM.

Take `Cn1c(=O)n(C2CCOCC2)c2c3nc(-c4cn[nH]c4)ccc3ncc21` [Compound 199, 3-methyl-8-(1H-pyrazol-4-yl)-1-(tetrahydro-2H-pyran-4-yl)-1,3-dihydro-2H-imidazo[4,5-c][1,5]naphthyridin-2-one]: in assay [1], the “PI3Ka Ki” value is 11.3 nM. Moreover, the half-inhibitory concentration (IC50) in assay [2] was 0.0183 µM. This compound also came in with a Ki in assay [3] of 1.03 nM.

For `Cc1ccc(-c2ccc3ncc4c(c3n2)n(C2CCOCC2)c(=O)n4C)cn1` [Compound 200, 3-methyl-8-(6-methylpyridin-3-yl)-1-(tetrahydro-2H-pyran-4-yl)-1,3-dihydro-2H-imidazo[4,5-c][1,5]naphthyridin-2-one], the “PI3Ka Ki” value in assay [1] was 1.11 nM. Moreover, the IC50 in assay [2] is 0.0273 µM. This compound yielded a Ki in assay [3] of 1.72 nM.

As for `COc1ncc(-c2ccc3ncc4c(c3n2)n(C2CCOCC2)c(=O)n4C)cn1` [Compound 201, 8-(2-methoxypyrimidin-5-yl)-3-methyl-1-(tetrahydro-2H-pyran-4-yl)-1,3-dihydro-2H-imidazo[4,5-c][1,5]naphthyridin-2-one], in assay [1], the “PI3Ka Ki” value was 8.96 nM. Besides, the IC50 in assay [2] turned out to be 0.0989 µM. The compound also showed a Ki in assay [3] of 6.42 nM.

As to `Cn1cc(-c2ccc3ncc4c(c3n2)n(C2CCOCC2)c(=O)n4C)cn1` [Compound 203, 3-methyl-8-(1-methyl-1H-pyrazol-4-yl)-1-(tetrahydro-2H-pyran-4-yl)-1,3-dihydro-2H-imidazo[4,5-c][1,5]naphthyridin-2-one], the “PI3Ka Ki” value in assay [1] was 5.17 nM. Further, in assay [2], the IC50 was 0.0718 µM. In assay [3], this compound gave a Ki of 72.3 nM.

For the compound `CN(C)c1ccc(-c2ccc3ncc4c(c3n2)n(C2CCOCC2)c(=O)n4C)cn1` [Compound 204, 8-[6-(dimethylamino)pyridin-3-yl]-3-methyl-1-(tetrahydro-2H-pyran-4-yl)-1,3-dihydro-2H-imidazo[4,5-c][1,5]naphthyridin-2-one], in assay [1], the “PI3Ka Ki” value was 0.298 nM. Also, the IC50 in assay [2] was found to be 0.029 µM. This compound also returned a Ki in assay [3] of 12.7 nM.

`CN(C)c1ccc(-c2ccc3ncc4c(c3n2)n(C2CCN(C(=O)C(C)(C)C)CC2)c(=O)n4C)cn1` [Compound 205, 8-[6-(dimethylamino)pyridin-3-yl]-1-[1-(2,2-dimethylpropanoyl)piperidin-4-yl]-3-methyl-1,3-dihydro-2H-imidazo[4,5-c][1,5]naphthyridin-2-one]: in assay [1], the “PI3Ka Ki” value is 0.281 nM. The IC50 in assay [2] came out at 0.0214 µM. In assay [3], the affinity, expressed as Ki, was 4.38 nM.
